Data taken from ChEMBL document CHEMBL5120944, “Neocucurbols A-H, Phomactin Diterpene Derivatives from the Marine-Derived Fungus Neocucurbitaria unguis-hominis FS685” (J Nat Prod, 2022).

Tests used:
Type in all cases: toxicity, cell-based
[1] = Cytotoxicity against human A549 cells assessed as reduction in cell viability after 24 hrs by SRB assay
[2] = Cytotoxicity against human MCF7 cells assessed as reduction in cell viability after 24 hrs by SRB assay
[3] = Cytotoxicity against human HepG2 cells assessed as reduction in cell viability after 24 hrs by SRB assay
[4] = Cytotoxicity against human SF-268 cells assessed as reduction in cell viability after 24 hrs by SRB assay

Measured: IC50 at 24 h

C[C@@H]1CC=C2[C@H]3[C@H](O)[C@@](C)(O)CC[C@@H]3[C@@](C)(O)CC[C@]1(C)[C@@H]2C
> 10 µM: [1] | [2] | [3] | [4]

CC1=CC[C@@H]2[C@@]3(C)CC[C@@]4(C)[C@H](C)[C@@H](O)C=C5[C@@]2(O[C@@H]3[C@]54O)[C@H]1O
> 10 µM: [1] | [2] | [3] | [4]

CC1=CC[C@H]2[C@]3(O[C@H]4[C@]2(C)[C@@H](O)C[C@@]2(C)[C@H](C)CC=C3[C@@]42O)[C@H]1O
> 10 µM: [1] | [2] | [3] | [4]

C=C1CC[C@@]2(C)[C@H](C)CC=C([C@@H]3[C@@H]1CC[C@](C)(O)[C@H]3O)[C@H]2C
> 10 µM: [1] | [2] | [3] | [4]

C=C1CC[C@@]2(C)[C@H](C)C[C@@H]3O[C@]3([C@@H]3[C@@H]1CC[C@](C)(O)[C@H]3O)[C@H]2C
> 10 µM: [1] | [2] | [3] | [4]

CC1=CC[C@@H]2[C@@]3(C)CC[C@]4(C)C5=C([C@@H](O)C[C@H]4C)[C@@]2(O[C@H]53)[C@H]1O
> 10 µM: [1] | [2] | [3] | [4]

CC1=CC[C@@H]2[C@@]3(C)CC[C@@]4(C)[C@H](C)CC(=O)[C@H]5[C@@]2(O[C@@H]3[C@]54O)[C@H]1O
> 10 µM: [1] | [2] | [3] | [4]

C/C1=C/C[C@@]2(C)[C@H](C)CC=C([C@@H]3[C@@H]1CC[C@](C)(O)[C@H]3O)[C@H]2C
> 10 µM: [1] | [2] | [3] | [4]
